Experimental data reported in PMC4084896 (PLoS ONE, 2014).
Values after ≈ are worked out from the molar mass of the structure shown. Where two headings read alike, the source gives them in different places.

What was measured:
[1] = MTT cytotoxicity test in primary human hepatocytes; type: cell-based; conditions: primary human hepatocytes, read-out: viability, % of control value
From the text: (§1) A stably transfected gene reporter cell line AZ-AHR, derived from human hepatoma HepG2 cells transfected with a construct containing several AhR binding sites upstream of a luciferase reporter gene, was used for assessment of AhR transcriptional activity. A stably transfected gene reporter cell line AZ-GR, derived from human cervix carcinoma HeLa cells transfected with a construct containing several GR response elements upstream of a luciferase reporter gene, was used for assessment of GR transcriptional activity. Cells were incubated for 24 h with tested compounds and/or vehicle (DMSO; 0.1% v/v), in the presence or absence of TCDD (5 nM; AZ-AHR cells) or DEX (100 nM; AZ-GR cells). After the treatments, cells were lysed and luciferase activity was measured. In parallel, cell viability was determined by conventional MTT test.
(§2) The cells were treated for 24 h with (+)-KET, (−)-KET and commercial rac-KET (1 µM, 30 µM, 50 µM), and with TCDD (5 nM) and vehicle (DMSO; 0.1% V/V). […] In the cytotoxicity assay, we found all forms of KET highly toxic against human hepatocytes at the concentration 50 µM.

[2] = system: AZ-GR cells; assay: MTT cytotoxicity test in AZ-GR cells; type: cell-based, human; conditions: 24 h incubation, read-out: AZ-GR viability - MTT IC50
From the text: as §1
(§3) There is multiple evidence for the role of glucocorticoid receptor (GR) in regulation of AhR activity. […] Gene reporter assays were performed in agonist and antagonist mode (similarly as described in section 3.1.).

[3] = system: CYP1A1 catalytic activity (7-ethoxyresorufin-O-deethylase)
[4] = biological target: T1, glucocorticoid receptor (GR) (Homo sapiens, UniProt P04150); assay: GR gene reporter assay in AZ-GR cells, antagonist mode (DEX 100 nM); type: cell-based; conditions: 24 h; for IC50: in the presence of DEX 100 nM
T1 sequence (P04150 1-777): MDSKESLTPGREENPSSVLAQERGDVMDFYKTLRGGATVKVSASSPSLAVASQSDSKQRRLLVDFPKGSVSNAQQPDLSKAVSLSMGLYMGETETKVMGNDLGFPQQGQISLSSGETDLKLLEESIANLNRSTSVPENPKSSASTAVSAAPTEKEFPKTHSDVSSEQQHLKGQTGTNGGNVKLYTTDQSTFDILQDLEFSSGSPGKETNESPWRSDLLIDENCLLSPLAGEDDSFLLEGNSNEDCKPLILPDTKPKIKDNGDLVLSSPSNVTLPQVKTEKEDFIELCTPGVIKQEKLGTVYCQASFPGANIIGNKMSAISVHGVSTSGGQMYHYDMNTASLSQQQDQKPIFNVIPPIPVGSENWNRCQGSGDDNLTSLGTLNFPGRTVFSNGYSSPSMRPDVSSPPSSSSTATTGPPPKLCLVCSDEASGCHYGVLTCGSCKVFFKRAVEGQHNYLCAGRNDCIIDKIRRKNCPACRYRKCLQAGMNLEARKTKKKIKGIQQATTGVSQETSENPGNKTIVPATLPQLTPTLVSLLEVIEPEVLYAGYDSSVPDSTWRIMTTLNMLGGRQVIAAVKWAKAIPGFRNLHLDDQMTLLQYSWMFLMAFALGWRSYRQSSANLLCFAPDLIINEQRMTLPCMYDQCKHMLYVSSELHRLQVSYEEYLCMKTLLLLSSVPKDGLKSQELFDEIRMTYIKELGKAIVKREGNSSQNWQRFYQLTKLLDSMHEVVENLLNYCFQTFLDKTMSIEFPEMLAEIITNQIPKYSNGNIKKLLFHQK
From the text: as §1, §3

[5] = biological target: T1, glucocorticoid receptor (GR); assay: GR gene reporter assay in AZ-GR cells, agonist mode; type: cell-based; conditions: up to / at 100 µM, 24 h
From the text: as §1, §3

[6] = MTT cytotoxicity test in AZ-AHR cells; type: cell-based, human; conditions: human; 24 h incubation, six passages; read-out: AZ-AHR viability - MTT IC50
From the text: as §1
(§4) Prior to the agonist or antagonist experiments, the cytotoxicity of tested compounds was assessed using the conventional MTT assay. […] The vehicle was DMSO (0.1% v/v). After the treatment, a MTT test was performed.

[7] = system: primary human hepatocytes; assay: MTT cytotoxicity test in primary human hepatocytes; type: cell-based; conditions: 50 µM, 24 h
From the text: as §1, §2

[8] = system: C. tropicalis 5; assay: MIC assessment, microdilution; type: cell-based; conditions: 48 h, 37°C, MFC same as MIC
Description: (§5) Antifungal activity was assessed using the standard microdilution method determining the minimum inhibitory concentrations (MICs) of the tested samples leading to inhibition of yeast growth. Disposable microtiter plates were used for the tests. The samples were diluted in brain heart infusion broth (HiMedia). […] C. albicans, C. krusei, C. tropicalis and C. parapsilosis. […] Subsequently, 100 µL were transferred into the first microplate well and serially diluted by a factor of 2. The prepared microplates were inoculated with a standard amount of the tested Candida spp. – the inoculum density in a well was equal to 10^5 CFU/mL. […] The minimum fungicidal concentration (MFC) is the minimum concentration of the sample required to kill the yeast after a defined period of incubation. The MFCs were determined by the inoculation method. With an applicator, 10 µL were transferred from the microplate wells with defined concentrations of the tested sample and inoculated onto Sabouraud agar (Trios). The MFC was determined as the lowest concentration that inhibited the visible growth of the used yeast. For growth curve assessment, the samples were serially diluted in 96-well microtiter plates. […] Absorbance (630 nm) was measured every hour during 24 hours and the obtained values were used to plot growth curves

[9] = system: C. albicans 978; assay: MIC assessment, microdilution; type: cell-based; conditions: 48 h, 37°C, MFC same as MIC
Description: as §5

[10] = system: C. albicans 1; assay: MIC assessment, microdilution; type: cell-based; conditions: 48 h, 37°C, MFC same as MIC
Description: as §5

[11] = system: AZ-AHR cells; assay: MTT cytotoxicity test in AZ-AHR cells; type: cell-based, human; conditions: 24 h incubation, six passages; read-out: AZ-AHR viability - MTT IC50
From the text: as §1, §4

| Structure (SMILES) | viability at 24 h, 50 µM [1] [%] | IC50 ([2]; Homo sapiens) [µM] | EROD activity (in words) [3] | inhibition of DEX-induced luciferase activity (in words) ([4]; DEX 100 nM) | IC50 [4] [µM] | increase of luciferase activity, agonist mode [5] | IC50 at 24 h [6] [µM] | viability, % of control value [7] [%] | IC50 [2] [µM] | MIC/MFC [8] [µM] | MIC/MFC [9] [µM] | MIC/MFC [10] [µM] | IC50 [11] [µM] |
| --- | --- | --- | --- | --- | --- | --- | --- | --- | --- | --- | --- | --- | --- |
| CC(=O)N1CCN(c2ccc(OCC3COC(Cn4ccnc4)(c4ccc(Cl)cc4Cl)O3)cc2)CC1 (racemic) [rac-KET, ketoconazole] | 46 | > 100 | increased the EROD activity in a concentration-dependent manner | only weak inhibition | > 100 | approximately 5 fold | 67.2 ± 24.8 | – | – | – | – | – | – |
| CC(=O)N1CCN(c2ccc(OC[C@H]3CO[C@](Cn4ccnc4)(c4ccc(Cl)cc4Cl)O3)cc2)CC1 [(+)-KET, (2R,4S)-(+)-KET] | – | – | – | – | 29.6 ± 0.9 | did not induce luciferase activity | – | 15 | 82.6 ± 23.7 | 3.13 (≈ 1.66 µg/mL) | 25 (≈ 13.3 µg/mL) | 25 (≈ 13.3 µg/mL) | 77.3 ± 23.9 |
